What all share (assay type): in vivo
One data set deals with black bean aphids. The experiment in a line: Aphids: seedling of the field bean with black bean aphids sprayed; dead and surviving aphids counted. The conditions noted are these: stated logarithmically (3 = 10^^-3 g/cm^3); for LD50 concentration based on insect-poison: I:P 100:0; for LD50 concentration (refers to the propynyl benzyl ether itself): I:P 0:100, ether alone. The protocol:
For each test, one seedling of the field bean with ca 50-100 black bean aphids is sprayed with a solution of the active ingredient(s) in acetone or an aqueous spray-wash of the active ingredient(s). The seedlings are individually placed in tubes in water. After 24 and 48 hours, the dead and surviving aphids are counted and the activity calculated in %.

The subject of the next data set is spider-mites. The data set can be described thus: Spider-mites on sprayed leaf discs, assessment based on the mortality of the spider-mites (W). The conditions noted are these: stated logarithmically (3 = 10^^-3 g/cm^3); for LD50 concentration based on insect-poison (W, mortality of the spider-mites): I:P 100:0; for LD50 concentration (W, mortality of the spider-mites; refers to the propynyl benzyl ether itself): I:P 0:100, ether alone. The protocol: (§1) For each test, three beam leaf discs each with a 2-day infection and with 20-40 spider-mites and eggs are sprayed with a solution of the active ingredient(s) in acetone or an aqueous spray-wash of the active ingredient(s). The dosage for each treated surface is 10^^-5 g/cm^2 = 1 kg/ha. After 2 days, the discs are assessed for dead spider-mites and after 6 days for dead spider-mites and killed eggs. (Assessment scheme: from 0-5, where 0 = 0% and 5 = 100% mortality).
W = assessment based on the mortality of the spider-mites;

For a further data set, the system named is flies. The data set can be described thus: Flies: placed in sprayed petri dishes; dead or crippled flies counted. The conditions noted are these: after 24 hours, stated logarithmically (3 = 10^^-3 g/cm^3); for LD50 concentration based on insect-poison: I:P 100:0. The protocol: For each test, two petri dishes are sprayed with a solution of the active ingredient(s) in acetone or an aqueous spray-wash of the active ingredient(s). The dosage for each treated surface is 10^^-5 g/cm^2 = 1 kg/ha. After 2-3 hours, 10 flies aged 4-5 days are placed in each petri dish. After 1, 3 and 24 hours, the flies which are dead or crippled are counted.

A further data set concerns spider-mite eggs. The experiment in a line: Spider-mites on sprayed leaf discs, assessment based on the mortality of the eggs (O). The conditions noted are these: stated logarithmically (3 = 10^^-3 g/cm^3), 8640 min; for LD50 concentration (O, mortality of the eggs; refers to the propynyl benzyl ether itself): I:P 0:100, ether alone. The protocol: as §1
O = assessment based on the mortality of the eggs.

Where [1] appears, read: Malathion group, I:P 0:100, ether alone.
The mark [2] stands for this setting: Methoxychlor group, I:P 0:100, ether alone.
The mark [3] stands for this setting: Sevin group, I:P 0:100, ether alone.

Regarding `C=CCC1=C(C)C(OC(=O)C2C(C=C(C)C)C2(C)C)CC1=O` (mixture of isomers) [Allethrin, 2-allyl-4-hydroxy-3-methyl-2-cyclopenten-1-one esterified with a mixture of cis and trans 2,2-dimethyl-3-(2-methylpropenyl)-cyclopropanecarboxylic acid, reference compound], the “LD50 concentration based on insect-poison” value amounted to 5.0 in the data set on black bean aphids (Allethrin alone) and 5.5 with flies (Allethrin alone). Besides, in the data set on spider-mites (Allethrin alone), the “LD50 concentration based on insect-poison (W, mortality of the spider-mites)” value is 3.4. For the same molecule, the “LD50 concentration based on insect-poison (O, mortality of the eggs)” value with spider-mite eggs (Allethrin alone, I:P 100:0) is given as less than 3.
Regarding `C#CCOCc1ccc2c(c1)OCO2` [A, 3,4-(methylenedioxy)-α-(2-propynyloxy)-toluene], the “LD50 concentration (refers to the propynyl benzyl ether itself)” value in the data set with black bean aphids (Allethrin group) is given as 3.0; in the data set on black bean aphids (Methoxychlor group) it was 3.0; in the data set on flies (setting [1]), greater than 3.5; in the data set with flies (setting [2]), greater than 3.5; in the data set on flies (setting [3]), 3.5. Further, in the data set with spider-mites (Sevin group), the “LD50 concentration (W, mortality of the spider-mites; refers to the propynyl benzyl ether itself)” value is reported as less than 2.
Regarding `C#CCOCc1ccc(OC)c(OC)c1` [B, 3,4-dimethoxy-α-(2-propynyloxy)-toluene], the “LD50 concentration (refers to the propynyl benzyl ether itself)” value in the data set with black bean aphids (Allethrin group) was determined as 3.0; in the data set on black bean aphids (Malathion group), 3.3; with black bean aphids (Methoxychlor group), 3.3; in the data set with flies (Allethrin group, I:P printed 0:10, ether alone) it was 3.3; in the data set with flies (setting [1]) it was 3.3; in the data set on flies (setting [2]), 3.3. Further, in the data set with flies (setting [3]), the “LD50 concentration (refers to the propynyl benzyl ether itself)” value is 3.5. Further, the “LD50 concentration (W, mortality of the spider-mites; refers to the propynyl benzyl ether itself)” value with spider-mites (Allethrin group), with spider-mites (Malathion group), in the data set with spider-mites (Methoxychlor group) and in the data set on spider-mites (Sevin group) was 3.0 in each case. The “LD50 concentration (O, mortality of the eggs; refers to the propynyl benzyl ether itself)” value with spider-mite eggs (Allethrin group), in the data set on spider-mite eggs (Methoxychlor group) and with spider-mite eggs (Sevin group) was 2.7 each time.
With `CCOC(=O)CC(SP(=S)(OC)OC)C(=O)OCC` (stereo not drawn) [Malathion, S-[1,2-bis-(carbethoxy)-ethyl]-0,0-dimethyl-dithiophosphate, reference compound], the “LD50 concentration based on insect-poison” value with black bean aphids (Malathion alone) and in the data set with flies (Malathion alone) was 5.1 each time. In addition, in the data set with spider-mites (Malathion alone), the “LD50 concentration based on insect-poison (W, mortality of the spider-mites)” value is recorded as less than 4.
